In BindingDB's records for doi:10.1016/j.bmcl.2005.09.045 (University of Leeds, 2006):

Molecular target: T1, Dihydroorotate dehydrogenase (quinone), mitochondrial (Plasmodium falciparum (isolate 3D7), UniProt Q08210)
T1 sequence (Q08210 whole entry): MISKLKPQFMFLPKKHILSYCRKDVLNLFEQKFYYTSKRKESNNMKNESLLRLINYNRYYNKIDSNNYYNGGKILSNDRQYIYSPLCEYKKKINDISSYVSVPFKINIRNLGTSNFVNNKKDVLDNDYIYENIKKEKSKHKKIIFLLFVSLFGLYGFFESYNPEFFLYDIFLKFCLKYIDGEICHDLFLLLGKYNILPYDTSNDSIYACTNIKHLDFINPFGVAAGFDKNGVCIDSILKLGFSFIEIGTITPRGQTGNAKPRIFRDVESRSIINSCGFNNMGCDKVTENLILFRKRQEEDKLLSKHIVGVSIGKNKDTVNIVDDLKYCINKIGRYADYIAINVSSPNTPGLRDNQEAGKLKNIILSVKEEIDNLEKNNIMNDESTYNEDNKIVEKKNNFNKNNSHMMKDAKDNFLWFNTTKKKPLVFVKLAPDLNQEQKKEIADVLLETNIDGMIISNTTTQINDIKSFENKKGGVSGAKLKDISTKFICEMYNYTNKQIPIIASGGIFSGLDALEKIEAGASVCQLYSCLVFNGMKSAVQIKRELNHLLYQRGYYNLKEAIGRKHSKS
Assay: DHODH Inhibition Assay
Conditions: pH 8; 25 °C
Method: The assays were carried out by using a colorimetric DCIP method, which uses the colorimetric reagent 2, 6-dichlorophenolindophenol as the final electron acceptor. DCIP reduction is stoichiometrically equivalent to oxidation of dihydroorotate. Changes in absorbance were quantified in triplicate on a plate reader and data were analyzed to measure the reduction of DCIP as a decrease in absorbance at 600 nm. The data were then processed with Graphpad Prism to determine the IC50 and the apparent enzyme inhibition constant (Ki) for each inhibitor. Ki values were calculated using the Cheng-Prusoff equation with the Km for CoQD of 13 uM and 15 uM for PfDHODH and HsDHODH respectively.

| IC50 | SMILES |
| --- | --- |
| > 200 µM | O=C(Nc1ccccc1C(=O)O)c1ccc2ccccc2c1 [2-(naphthalene-2-amido)benzoic acid] |
| > 200 µM | CN(C(=O)c1ccc2ccccc2c1)c1ccccc1C(=O)O [2-[methyl(naphthalene-2-)amido]benzoic acid] |
